Data published in publication PMC8343220, “The selectivity of α‐adrenoceptor agonists for the human α1A, α1B, and α1D‐adrenoceptors” (Pharmacology Research & Perspectives, 2021).
Like-named read-outs stand apart in the source and are kept apart here. Marks after values point to notes of the source that are not given here.

Key:
[1] = system: parental CHO cell line without any transfected receptors; assay: Intracellular calcium mobilization, parent CHO cells without transfected receptors; assay type: cell-based, Chinese hamster; conditions: Cricetulus griseus, read-out: Intracellular calcium release % ionomycin
human α1A‐adrenoceptor [2] = biological target: T1, human α1A‐adrenoceptor (Homo sapiens, UniProt P35348); assay: ERK1/2‐phosphorylation (Surefire Alphascreen), CHO‐α1A cells; assay type: cell-based
T1 construct: expressed in transfected cells; host or cells: CHO-K1
T1 sequence (P35348 1-466): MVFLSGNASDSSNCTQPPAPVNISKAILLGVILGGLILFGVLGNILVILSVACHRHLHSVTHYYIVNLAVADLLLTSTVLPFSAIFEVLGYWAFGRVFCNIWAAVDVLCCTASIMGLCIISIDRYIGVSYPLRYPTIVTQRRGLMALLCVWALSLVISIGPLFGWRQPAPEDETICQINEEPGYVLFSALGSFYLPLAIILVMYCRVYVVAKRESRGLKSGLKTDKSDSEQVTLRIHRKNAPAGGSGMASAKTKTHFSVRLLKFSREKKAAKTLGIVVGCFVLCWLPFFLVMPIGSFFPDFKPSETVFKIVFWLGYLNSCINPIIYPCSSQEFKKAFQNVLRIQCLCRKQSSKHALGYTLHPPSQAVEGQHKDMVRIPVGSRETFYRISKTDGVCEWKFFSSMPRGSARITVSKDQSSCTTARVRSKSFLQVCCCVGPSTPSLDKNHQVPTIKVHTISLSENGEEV

human α1B‐adrenoceptor [3] = biological target: T2, human α1B‐adrenoceptor (Homo sapiens, UniProt P35368); assay: Intracellular free calcium mobilization, CHO‐α1B cells; assay type: cell-based
T2 construct: expressed in transfected cells; host or cells: CHO-K1
T2 sequence (P35368 1-520): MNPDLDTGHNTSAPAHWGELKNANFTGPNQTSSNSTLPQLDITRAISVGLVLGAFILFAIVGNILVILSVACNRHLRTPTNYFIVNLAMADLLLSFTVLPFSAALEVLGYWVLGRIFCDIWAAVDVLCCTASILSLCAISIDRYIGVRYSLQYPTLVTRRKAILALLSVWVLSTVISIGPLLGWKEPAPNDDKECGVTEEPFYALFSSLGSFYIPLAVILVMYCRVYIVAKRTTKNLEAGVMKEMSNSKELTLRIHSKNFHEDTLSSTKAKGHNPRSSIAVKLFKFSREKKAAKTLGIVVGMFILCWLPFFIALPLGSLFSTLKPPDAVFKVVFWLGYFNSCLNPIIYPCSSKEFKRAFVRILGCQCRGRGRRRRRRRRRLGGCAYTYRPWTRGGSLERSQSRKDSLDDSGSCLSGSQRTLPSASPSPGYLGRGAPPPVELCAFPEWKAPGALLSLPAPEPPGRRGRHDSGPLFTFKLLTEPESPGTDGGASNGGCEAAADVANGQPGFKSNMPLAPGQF

human α1A‐adrenoceptor [4] = biological target: T1, human α1A‐adrenoceptor; assay: ^3H‐cAMP accumulation, CHO‐α1A cells; assay type: cell-based; conditions: CHO‐α1A cells; % of 10 µM forskolin response
[5] = biological target: T3, human α1D‐adrenoceptor (full length) (Homo sapiens, UniProt P25100); assay: Intracellular free calcium mobilization, CHO‐α1D cells; assay type: cell-based; conditions: for Intracellular calcium release % ionomycin: maximal response as % of 10 µM ionomycin
T3 construct: human α1D‐adrenoceptor (full length) were used; expressed in transfected cells; host or cells: CHO-K1
T3 sequence (P25100 1-572): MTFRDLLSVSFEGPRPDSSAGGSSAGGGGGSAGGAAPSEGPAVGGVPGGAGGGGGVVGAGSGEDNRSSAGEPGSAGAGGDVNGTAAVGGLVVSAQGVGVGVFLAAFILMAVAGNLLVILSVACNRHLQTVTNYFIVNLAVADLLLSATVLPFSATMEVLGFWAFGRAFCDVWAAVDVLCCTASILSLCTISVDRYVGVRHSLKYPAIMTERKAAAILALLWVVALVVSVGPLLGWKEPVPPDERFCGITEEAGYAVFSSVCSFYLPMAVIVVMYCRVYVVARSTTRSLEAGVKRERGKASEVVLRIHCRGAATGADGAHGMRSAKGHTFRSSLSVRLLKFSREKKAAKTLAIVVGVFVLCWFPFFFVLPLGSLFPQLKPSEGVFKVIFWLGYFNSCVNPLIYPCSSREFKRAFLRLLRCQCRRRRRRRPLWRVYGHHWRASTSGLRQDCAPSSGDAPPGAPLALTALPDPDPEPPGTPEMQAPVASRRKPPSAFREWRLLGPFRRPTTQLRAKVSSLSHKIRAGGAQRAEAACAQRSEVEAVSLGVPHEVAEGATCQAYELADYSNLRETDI

[6] = system: parental CHO cell line without any transfected receptors; assay: Forskolin‐stimulated cAMP accumulation, parent CHO cells without transfected receptors; assay type: cell-based, Chinese hamster; conditions: for cAMP accumulation (in presence of forskolin) % forskolin-stim cAMP at 100μM: response at 100μM only, EC50 not obtainable, % of forskolin-stimulated cAMP
human α1B‐adrenoceptor [7] = biological target: T2, human α1B‐adrenoceptor; assay: ERK1/2‐phosphorylation (Surefire Alphascreen), CHO‐α1B cells; assay type: cell-based
human α1A‐adrenoceptor [8] = biological target: T1, human α1A‐adrenoceptor; assay: Intracellular free calcium mobilization, CHO‐α1A cells; assay type: cell-based
[9] = biological target: T3, human α1D‐adrenoceptor (full length); assay: ERK1/2‐phosphorylation (Surefire Alphascreen), CHO‐α1D cells; assay type: cell-based
human α1B‐adrenoceptor [10] = biological target: T2, human α1B‐adrenoceptor; assay: ^3H‐cAMP accumulation, CHO‐α1B cells; assay type: cell-based; conditions: CHO‐α1B cells; % forskolin maximum response
[11] = system: parental CHO cell line without any transfected receptors; assay: ERK1/2‐phosphorylation, parent CHO cells without transfected receptors; assay type: cell-based, Chinese hamster; conditions: for EC50: read-out: ERK1/2-phosphorylation Log EC50 (converted); for Emax: read-out: ERK1/2-phosphorylation % PDBu; for ERK1/2‐phosphorylation response in parent CHO cells: untransfected cells
[12] = biological target: T3, human α1D‐adrenoceptor (full length); assay: ^3H‐cAMP accumulation in the presence of 10 μM forskolin, CHO‐α1D cells; assay type: cell-based; conditions: for Effect on cAMP accumulation in the presence of forskolin, CHO‐α1D cells: not α1‐mediated
[13] = biological target: T3, human α1D‐adrenoceptor (full length); assay: ^3H‐prazosin whole‐cell radioligand binding, CHO‐α1D cells
human α1A‐adrenoceptor [14] = biological target: T1, human α1A‐adrenoceptor; assay: ^3H‐prazosin whole‐cell radioligand binding, CHO‐α1A cells
human α1B‐adrenoceptor [15] = biological target: T2, human α1B‐adrenoceptor; assay: ^3H‐prazosin whole‐cell radioligand binding, CHO‐α1B cells
[16] = CHO cells without transfected receptors, response at maximum concentration used (c2), as % of ionomycin (10μM) response, mean ± s.e.m.
[17] = Cricetulus griseus, CHO cells without transfected receptors, maximal response as % of PDBu (10μM) response, mean ± s.e.m.
[18] = CHO‐α1A cells, % of 10 µM PDBu, ^a bi‐phasic: initial stimulatory part
[19] = CHO‐α1A cells, maximal response as % of 10 µM ionomycin
[20] = CHO‐α1D cells, maximal response as % of PDBu
[21] = CHO‐α1D cells, log values given negative
[22] = 3H‐prazosin binding Log KD, CHO‐α1D cells, whole‐cell binding (from Table 1), log values given negative
[23] = CHO‐α1D cells, given as log KD (negative), mean ± SEM, 'early plateau' = specific binding not fully inhibited
[24] = CHO cells without transfected receptors, maximal response as % of PDBu (10μM) response, mean ± s.e.m.
[25] = CHO cells without transfected receptors

Compound | Emax [1, 16] [%] | ERK1/2‐phosphorylation % PDBu (human α1A‐adrenoceptor [2]) [%] | cAMP accumulation % forskolin (human α1A‐adrenoceptor [4]) [%] | Intracellular calcium release % Ionomycin at 100 µM [5] [%] | ERK1/2‐phosphorylation % PDBu (human α1B‐adrenoceptor [7]) [%] | Intracellular calcium release % ionomycin (human α1A‐adrenoceptor [8]) [%] | ERK1/2‐phosphorylation % PDBu at 100 µM [9] | cAMP accumulation % forskolin (human α1B‐adrenoceptor [10]) | Emax [11, 17] [%] | ERK1/2‐phosphorylation response in parent CHO cells [11] | ERK1/2‐phosphorylation % PDBu (human α1A‐adrenoceptor [2]; [18]) [%] | Intracellular calcium release % ionomycin ([5]; CHO‐α1D cells) | Intracellular calcium release % ionomycin (human α1A‐adrenoceptor [8]; [19]) [%] | ERK1/2‐phosphorylation % PDBu [9, 20] | Affinity selectivity ratio α1B vs α1D [13] [fold] | Kd [13, 22] [nM] | Kd [13, 23] [nM] | Affinity selectivity ratio α1A vs α1B (human α1A‐adrenoceptor [14]) [fold] | Kd (human α1A‐adrenoceptor [14]) [nM] | ERK1/2-phosphorylation Log EC50 [11] | other results
CC(CCc1ccccc1)NCC(O)c1ccc(O)c(C(N)=O)c1 (centres unmarked) [Labetolol] | 10.3 ± 3.1 | 71.3 ± 5.2 | 4.5 ± 0.6 | 8.1 ± 1.6 | 22.9 ± 6.3 | 36.9 ± 3.7 | 36.5 ± 5.2 ^a % | No response | 25.9 ± 3.4 | stimulated ERK1/2‐phosphorylation responses | – | – | – | – | – | – | – | – | – | – | Intracellular calcium release % Ionomycin at 100 µM (human α1B‐adrenoceptor [3]): 2.5 ± 1.2%; cAMP accumulation (in presence of forskolin) Log EC50 [6]: No response; EC50 ([11]; Cricetulus griseus, CHO): 2400 nM
Cc1cc(C(C)(C)C)c(O)c(C)c1CC1=NCCN1 [Oxymethazoline] | 3.1 ± 0.9 | – | 43.9 ± 5.2 | – | – | – | – | – | 46.7 ± 6 | stimulated ERK1/2‐phosphorylation responses | 92.8 ± 2.7 | 7.6 ± 1.0% | 54.5 ± 2.5 | 48.6 ± 5.4% | – | – | – | – | – | – | % inhibition of forskolin-stimulated cAMP ([6]; CHO cells without transfected receptors, footnote *: % inhibition): 18.1 ± 2.2%; IC50 ([6]; Cricetulus griseus, CHO cells without transfected receptors, footnote *: log IC50, read-out: log IC50, decrease in forskolin-stimulated cAMP accumulation (converted)): 19.5 nM; Effect on cAMP accumulation in the presence of forskolin, parent cells ([6]; untransfected cells): decrease in cAMP accumulation; EC50 ([11]; Cricetulus griseus, CHO cells without transfected receptors, mean ± s.e.m.): 11 nM; % inhibition of forskolin‐stimulated cAMP ([12]; CHO‐α1D cells, decrease in forskolin‐stimulated cAMP accumulation (footnote b)): *28.7 ± 2.9%; Effect on cAMP accumulation in the presence of forskolin, CHO‐α1D cells ([12]; listed as Oxymetazoline): decrease in cAMP accumulation; Effect on cAMP accumulation in the presence of forskolin, CHO‐α1D cells ([12]; listed as oxymetazoline): inhibitory cAMP response
OCc1cc(C(O)CNCCCCCCOCCCCc2ccccc2)ccc1O (centres unmarked) [Salmeterol] | 3.2 ± 1.4 | – | – | – | – | – | – | – | – | – | – | No response | – | No response | 4.4 | 1700 | 1700 | 9.5 | 776 | No response | Intracellular calcium release % ionomycin at 10 µM (human α1B‐adrenoceptor [3]; CHO‐α1B cells, response at 10 µM ligand (no EC50 given), % of ionomycin response): 15.2 ± 4.0%; Intracellular calcium release Log EC50 [5, 21]: No response; Intracellular calcium release % ionomycin at 10 µM (human α1A‐adrenoceptor [8]): 28.2 ± 2.7%; ERK1/2‐phosphorylation Log EC50 [9, 21]: No response; Kd (human α1B‐adrenoceptor [15]; CHO‐α1B cells, given as log KD (negative), mean ± SEM): 7410 nM; Kd (human α1B‐adrenoceptor [15]; Log KD, ^3H‐prazosin binding, CHO‐α1B cells, whole‐cell binding (from Table 1), given as log KD (negative numbers)): 7410 nM; ERK1/2-phosphorylation % PDBu [11, 24]: No response
Cc1cccc(C)c1N=C1NCCCS1 [Xylazine] | – | 78.6 ± 5.8 | – | 3.8 ± 0.8 | 26.4 ± 5.8 | 45.1 ± 2.2 | – | – | – | – | – | – | – | – | 21.9 | – | – | 18.2 | 33100 | No response | Emax ([1]; CHO): 2.3 ± 0.3%; EC50 (human α1A‐adrenoceptor [2]): 2040 nM; EC50 (human α1B‐adrenoceptor [3]): 4680 nM; Intracellular calcium release % ionomycin (human α1B‐adrenoceptor [3]): 30.4 ± 3.9%; Log efficacy ratio KD /EC50 (human α1B‐adrenoceptor [3]): 2.11; Affinity selectivity ratio α1A vs α1D [13]: 1.2 fold; Kd [13]: 27500 nM; EC50 (human α1B‐adrenoceptor [7]): 6760 nM; EC50 (human α1A‐adrenoceptor [8]): 1200 nM; Log efficacy ratio KD /EC50 (human α1A‐adrenoceptor [8]): 1.44; ERK1/2‐phosphorylation % PDBu [9]: No response; ERK1/2‐phosphorylation Log EC50 [9]: No response; Kd (human α1B‐adrenoceptor [15]): 603000 nM; ERK1/2-phosphorylation % PDBu [11]: No response
Cc1cccc(Cc2c[nH]cn2)c1C [Detomidine] | 4.3 ± 1.7 | 84.2 ± 3.8 | 17.3 ± 1.9 | – | 31.5 ± 5.4 | – | 12.3 ± 2.4% | 2.8 ± 0.6% | – | – | – | – | – | – | – | 977 | 977 | – | – | – | cAMP accumulation (in presence of forskolin) % forskolin-stim cAMP at 100μM [6, 25]: 83.2 ± 4.9%; Emax at 100 µM ([11]; Cricetulus griseus, CHO, read-out: ERK1/2-phosphorylation % PDBu at 100μM): 6.1 ± 4%
O=C1CC2(CCCC2)CC(=O)N1CCCCN1CCN(c2ncccn2)CC1 [Buspirone] | 3.1 ± 2.3 | – | 3.3 ± 0.06 | – | – | – | – | – | – | – | 47.3 ± 10.6 | 9.0 ± 1.5% | 46.7 ± 3.0 | 11.3 ± 2.5% | – | – | – | – | – | – | Intracellular calcium release % ionomycin (human α1B‐adrenoceptor [3]; CHO‐α1B cells, maximal response as % of 10 µM ionomycin response): 47.8 ± 3.2%; cAMP accumulation (in presence of forskolin) % forskolin-stim cAMP at 100μM [6, 25]: 113.6 ± 5.2%; ERK1/2‐phosphorylation % PDBu (human α1B‐adrenoceptor [7]; CHO‐α1B cells, maximal response as % PDBu response, for bi‐phasic responses the initial stimulatory part): 47.2 ± 8.6%; ERK1/2-phosphorylation % PDBu [11, 24]: No response
